The text below walks through data of patent publication US4262004A, “2,3-Dihydro-imidazo[2,1-b]benzothiazole compositions to treat depressions” (Janssen Pharmaceutica, N.V., priority 1979, dated 1981).

Structures can show the parent of a compound that is named as a salt. Where two headings read alike, the source gives them in different places.

Experiment [1] deals with T1, monoamine oxidase (type B enzyme, β-phenylethylamine substrate) (Rattus norvegicus, UniProt P19643).
T1 sequence (P19643 1-520): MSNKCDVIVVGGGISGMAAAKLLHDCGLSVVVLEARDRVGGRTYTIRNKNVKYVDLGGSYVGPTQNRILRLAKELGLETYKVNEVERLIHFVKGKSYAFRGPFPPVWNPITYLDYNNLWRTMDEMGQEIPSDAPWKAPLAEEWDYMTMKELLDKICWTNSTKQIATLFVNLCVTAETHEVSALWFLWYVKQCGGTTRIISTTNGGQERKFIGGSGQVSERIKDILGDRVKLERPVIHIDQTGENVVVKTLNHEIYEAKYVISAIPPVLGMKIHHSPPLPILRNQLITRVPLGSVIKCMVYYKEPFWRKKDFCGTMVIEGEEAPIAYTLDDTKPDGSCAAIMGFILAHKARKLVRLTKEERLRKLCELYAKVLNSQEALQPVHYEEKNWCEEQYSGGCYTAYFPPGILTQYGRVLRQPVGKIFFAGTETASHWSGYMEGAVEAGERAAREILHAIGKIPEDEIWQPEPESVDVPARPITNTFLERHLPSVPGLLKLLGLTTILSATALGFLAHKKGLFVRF
Put plainly: in-vitro monoamine oxidase inhibition, [14C]phenylethylamine hydrochloride as substrate. The format is biochemical. The note with it: monoamine oxidase extract of Wistar rat tissue, pH 7.4, 37° C., 20 minutes.

Experiment [2] addresses T2, monoamine oxidase (type A enzyme, tryptamine substrate) (Rattus norvegicus, UniProt P21396).
T2 sequence (P21396 1-526): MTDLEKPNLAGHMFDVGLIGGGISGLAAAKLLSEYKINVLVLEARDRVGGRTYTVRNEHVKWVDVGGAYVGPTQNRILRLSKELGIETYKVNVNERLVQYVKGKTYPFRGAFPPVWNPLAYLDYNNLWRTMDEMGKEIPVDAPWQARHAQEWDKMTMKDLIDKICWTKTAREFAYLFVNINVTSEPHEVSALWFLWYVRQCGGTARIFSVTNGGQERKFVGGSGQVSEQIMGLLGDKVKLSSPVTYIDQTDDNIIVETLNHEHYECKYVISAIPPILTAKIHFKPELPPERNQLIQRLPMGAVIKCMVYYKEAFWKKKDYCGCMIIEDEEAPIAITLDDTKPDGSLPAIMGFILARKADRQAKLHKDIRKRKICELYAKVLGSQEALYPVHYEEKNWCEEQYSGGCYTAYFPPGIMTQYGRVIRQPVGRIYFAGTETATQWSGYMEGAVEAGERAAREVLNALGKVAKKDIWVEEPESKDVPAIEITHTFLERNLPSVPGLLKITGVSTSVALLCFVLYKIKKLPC
Description: in-vitro monoamine oxidase inhibition, [14C]tryptamine as substrate. The format is biochemical. The note with it: Table I; monoamine oxidase extract of Wistar rat tissue, pH 7.4, 37° C., 20 minutes; read-out: I.C.50-value using as substrate [14C]tryptamine.

[3] abbreviates: Table I, read-out: I.C.50-value using as substrate [14C]phenylethylamine . HCl.

With `C#CCNc1ccc2c(c1)SC1=NCCN12`, the IC50 amounted to 55 µM in experiment [1] (setting [3]) and 0.8 µM in experiment [2].

On to `CC(CO)Nc1ccc2c(c1)N1CCN=C1S2` (stereo not shown), for which the IC50 in experiment [2] stood at 0.13 µM.

On to `CCCCCCN(C=C(C(=O)OCC)C(=O)OCC)c1ccc2c(c1)SC1=[N+](CCCCCC)CCN12`, for which the IC50 in experiment [1] (Table 2, read-out: I.C.50-value using as substrate [14C]phenylethylamine hydrochloride) was determined as 1.8 µM.

Take `CCCc1ccc2c(c1)SC1=NC(c3ccccc3)CN12` (stereo not shown) [2-C6 H5,7-C3 H7]: the IC50 was 6 µM in experiment [1] (setting [3]) and 2.5 µM in experiment [2].

Take `c1ccc2c3c(ccc2c1)SC1=NCCN13` [5,6-(CHCHCHCH)]: the IC50 in experiment [1] (setting [3]) was 4 µM; in experiment [2], 0.006 µM.

On to `c1c2c(cc3c1SC1=NCCN13)CCC2` [6,7-(CH2)3], for which the IC50 in experiment [1] (setting [3]) came out at 12 µM; in experiment [2], 0.055 µM.

Consider `CCc1ccc2c(c1)N1CCN=C1S2` [6-C2 H5], for which the values for the IC50 in experiment [1] (setting [3]) and in experiment [2] were 10 µM and 0.14 µM, respectively.

As for `O=C(c1ccccc1)c1ccc2c(c1)N1CCN=C1S2` [6-COC6 H5, (2,3-dihydroimidazo[2,1-b]benzothiazol-6-yl)phenylmethanone monohydrochloride], the IC50 in experiment [1] (setting [3]) amounted to 3 µM; in experiment [2], 0.22 µM.

For `CCNc1ccc2c(c1)N1CCN=C1S2` [6-NHC2 H5, N-ethyl-2,3-dihydroimidazo[2,1-b]benzothiazol-6-amine], the IC50 worked out at 40 µM in experiment [1] (setting [3]) and 0.018 µM in experiment [2].

For `Clc1ccc(CNc2ccc3c(c2)N2CCN=C2S3)cc1` [6-NHCH2(4-ClC6 H4)], the IC50 in experiment [1] (setting [3]) was 0.07 µM; in experiment [2], 0.026 µM.

Consider `CCC(CC)Nc1ccc2c(c1)N1CCN=C1S2` [6-NHCH(C2 H5)2], for which the IC50 is 1.8 µM in experiment [1] (setting [3]) and 0.006 µM in experiment [2].

As to `CC(C)Nc1ccc2c(c1)N1CCN=C1S2` [6-NHi . C3 H7, 2,3-dihydro-N-(1-methylethyl)imidazo[2,1-b]benzothiazol-6-amine], the figures for the IC50 in experiment [1] (setting [3]) and in experiment [2] were 34 µM and 0.018 µM, respectively.

In the case of `CCCCCCc1ccc2c(c1)SC1=NCCN12` [7-C6 H13], the IC50 in experiment [1] (setting [3]) was determined as 0.04 µM; in experiment [2], 0.02 µM.

Regarding `CCCN(C=C(C(=O)OCC)C(=O)OCC)c1ccc2c(c1)SC1=NCCN12` [7-N(C3 H7)CHC(COOEt)2], the IC50 in experiment [1] (setting [3]) worked out at 2.2 µM; in experiment [2], 0.22 µM.

For the compound `CCNc1ccc2c(c1)SC1=NCCN12` [7-NHC2 H5], the IC50 in experiment [1] (setting [3]) was 45 µM; in experiment [2], 0.1 µM.

For the compound `COc1cc(CNc2ccc3c(c2)SC2=NCCN23)cc(OC)c1OC` [7-NHCH2 [3,4,5-(OCH3)3C6 H2]], the IC50 in experiment [1] (setting [3]) is 0.07 µM; in experiment [2] it was 20 µM.

As to `CCOC(=O)C(=CNc1ccc2c(c1)SC1=NCCN12)C(=O)OCC` [7-NHCHC(COOEt)2, diethyl 2-[(2,3-dihydroimidazo[2,1-b]benzothiazol-7-yl-amino)methylene]propanedioate], the IC50 in experiment [1] (setting [3]) was determined as 0.03 µM; in experiment [2], 3.4 µM.

For `c1ccc(Oc2ccc3c(c2)SC2=NCCN23)cc1` [7-OC6 H5], the IC50 in experiment [1] (setting [3]) is 0.095 µM; in experiment [2], 0.45 µM.

As to `c1cc2c(cc1C1CCCCC1)SC1=NCCN12` [7-c . C6 H 11], the figures for the IC50 in experiment [1] (setting [3]) and in experiment [2] were 0.065 µM and 0.012 µM, respectively.

For the compound `CCNc1cccc2c1SC1=NCCN12` [8-NHC2 H5], the IC50 in experiment [1] (setting [3]) was found to be 40 µM; in experiment [2], 0.002 µM.

`Cc1cccc2c1N1CCN=C1S2` [Example 5-CH3]: the IC50 is 4 µM in experiment [1] (setting [3]) and 0.22 µM in experiment [2].

As for `Clc1cccc2c1N1CCN=C1S2` [Example 5-Cl], the IC50 in experiment [1] (setting [3]) stood at 0.6 µM; in experiment [2], 0.12 µM.

As for `CC(=O)Nc1ccc2c(c1)N1CCN=C1S2` [Example 6-NHCOCH3, N-(2,3-dihydroimidazo[2,1-b]benzothiazol-6-yl)acetamide], the IC50 in experiment [1] (setting [3]) was 85 µM; in experiment [2], 1.8 µM.

Regarding `NC(=O)Nc1ccc2c(c1)N1CCN=C1S2` [Example 6-NHCONH2, N-(2,3-dihydroimidazo[2,1-b]benzothiazol-6-yl)urea], the figures for the IC50 in experiment [1] (setting [3]) and in experiment [2] were 12 µM and 1.6 µM, respectively.

`COc1ccc2c(c1)SC1=NCCN12` [Example 7-OCH3]: the IC50 in experiment [1] (setting [3]) came to 14 µM; in experiment [2], 0.28 µM.

Take `Oc1ccc2c(c1)SC1=NCCN12` [Example 7-OH, 2,3-dihydroimidazo[2,1-b]benzothiazol-7-ol monohydrobromide]: in experiment [2], the IC50 was 2 µM.
